From ChEMBL document CHEMBL5360557 (Eur J Med Chem, 2023)
pIC50: −log10 of the molar value.

What was measured:
Cholinesterase [1] = biological target: T1, Cholinesterase (Homo sapiens, UniProt P06276); assay: Inhibition of recombinant human BuChE using butyrylthiocholine iodide as substrate at 10 uM preincubated with enzyme for 5 mins followed by substrate addition and measured after 1 min by Ellman's method relative to control; conditions: time 6.0 min
Cholinesterase [2] = biological target: T1, Cholinesterase; assay: Inhibition of recombinant human BuChE using butyrylthiocholine iodide as substrate preincubated with enzyme for 5 mins followed by substrate addition and measured after 1 min by Ellman's method
Acetylcholinesterase = Acetylcholinesterase (Homo sapiens, UniProt P22303); assay: Inhibition of recombinant human AChE using acetylthiocholine iodide as substrate preincubated with enzyme for 5 mins followed by substrate addition and measured after 1 min by Ellman's method
[3] = Cytotoxicity against human HepG2 cells assessed as inhibition of cell growth incubated for 24 hrs by MTT assay; format: toxicity, cell-based
in vitro = conditions: PAMPA
Description: Permeability of the compound incubated for 3 to 6 hrs by PAMPA-BBB assay

[4] = Cytotoxicity against human SH-SY5Y cells assessed as inhibition of cell growth incubated for 24 hrs by MTT assay; format: toxicity, cell-based

Sequence of Acetylcholinesterase (P22303 whole entry): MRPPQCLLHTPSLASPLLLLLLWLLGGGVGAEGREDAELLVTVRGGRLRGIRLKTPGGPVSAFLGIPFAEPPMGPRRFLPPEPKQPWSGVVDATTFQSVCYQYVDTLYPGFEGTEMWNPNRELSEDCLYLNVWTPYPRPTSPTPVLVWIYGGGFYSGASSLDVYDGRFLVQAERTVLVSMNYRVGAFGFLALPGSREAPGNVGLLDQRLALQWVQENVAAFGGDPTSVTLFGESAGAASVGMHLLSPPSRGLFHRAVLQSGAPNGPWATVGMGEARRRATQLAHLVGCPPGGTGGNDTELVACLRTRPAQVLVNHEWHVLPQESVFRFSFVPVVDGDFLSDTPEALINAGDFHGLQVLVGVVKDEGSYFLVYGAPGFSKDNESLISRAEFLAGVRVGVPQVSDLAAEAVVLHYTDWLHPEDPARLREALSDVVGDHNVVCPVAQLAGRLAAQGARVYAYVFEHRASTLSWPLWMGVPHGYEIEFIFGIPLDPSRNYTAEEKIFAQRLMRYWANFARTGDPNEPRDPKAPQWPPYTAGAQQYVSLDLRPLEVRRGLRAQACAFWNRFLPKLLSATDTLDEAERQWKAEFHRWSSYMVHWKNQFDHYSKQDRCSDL
T1 sequence (P06276 whole entry): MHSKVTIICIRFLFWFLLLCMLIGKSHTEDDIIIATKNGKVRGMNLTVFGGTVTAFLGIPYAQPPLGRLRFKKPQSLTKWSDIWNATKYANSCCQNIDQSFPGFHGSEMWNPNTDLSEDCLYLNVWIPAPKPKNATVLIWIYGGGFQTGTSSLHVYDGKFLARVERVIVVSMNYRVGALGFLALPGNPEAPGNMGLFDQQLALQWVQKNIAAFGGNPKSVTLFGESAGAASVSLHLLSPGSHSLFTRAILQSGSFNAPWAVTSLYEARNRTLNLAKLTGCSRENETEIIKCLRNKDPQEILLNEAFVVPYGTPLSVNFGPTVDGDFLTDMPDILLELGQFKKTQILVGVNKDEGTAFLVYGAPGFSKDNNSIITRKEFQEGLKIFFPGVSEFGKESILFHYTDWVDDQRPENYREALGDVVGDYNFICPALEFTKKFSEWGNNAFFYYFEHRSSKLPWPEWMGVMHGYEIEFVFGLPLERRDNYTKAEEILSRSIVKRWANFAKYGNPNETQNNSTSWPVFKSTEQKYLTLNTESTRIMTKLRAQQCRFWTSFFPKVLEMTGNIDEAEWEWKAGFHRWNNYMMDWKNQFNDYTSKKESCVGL

Row | SMILES | inhibition (Cholinesterase [1]) [%] | pIC50 (Cholinesterase [2]) | pIC50 (Acetylcholinesterase) | IC50 at 24 h [3] [µM] | Papp (in vitro) [×10⁻⁶ cm/s] | IC50 at 24 h [4] [µM]
1 | COc1cccc(CN(CCCCc2ccccc2)CCCC(C)C)c1OCc1ccccc1 | 87 | 6.54 | < 5.00 |  |  | 
2 | C#CCN(CCc1cccc(OC)c1)Cc1cccc(OC)c1OCc1ccccc1 | 28 | < 5.00 | < 5.00 |  |  | 
3 | COc1cccc(CNCc2ccccc2)c1OCc1ccccc1 | 78 | 5.82 | < 5.00 |  |  | 
4 | C#CCN(CCc1ccccc1OC)Cc1cccc(OC)c1OCc1ccccc1 | 35 | < 5.00 | < 5.00 |  |  | 
5 | C=CCN(CCCc1ccccc1)Cc1cccc(OC)c1OCc1ccccc1 | 98 | 7.40 | < 5.00 | > 200 | 28 | > 200
6 | COc1ccc2c3c1O[C@H]1C[C@@H](O)C=C[C@@]31CCN(C)C2 [GALANTAMINE] |  |  |  | 4200 |  | 4700
7 | COc1cccc(CNCCCc2ccccc2)c1OCc1ccccc1 | 97 | 7.05 | < 5.00 |  | 21 | 8.9
8 | CCOc1ccc(CCN(CC)Cc2cccc(OC)c2OCc2ccccc2)cc1 | 84 | 6.05 | < 5.00 |  |  | 
9 | CCCN(CCCc1cccc(O)c1)Cc1cccc(OC)c1OCc1ccccc1 | 96 | 6.80 | < 5.00 |  |  | 
10 | C#CCN(CCc1ccccc1)Cc1cccc(OC)c1OCc1ccccc1 | 46 | < 5.00 | < 5.00 |  |  | 
11 | COc1ccc(CCN(C)Cc2cccc(OC)c2OCc2ccccc2)cc1 | 76 | 5.49 | < 5.00 |  |  | 
12 | C=CCN(CCc1ccc(O)cc1)Cc1cccc(OC)c1OCc1ccccc1 | 96 | 6.52 | < 5.00 |  |  | 
13 | CCN(CCc1ccc(O)cc1)Cc1cccc(OC)c1OCc1ccccc1 | 94 | 6.52 | < 5.00 |  |  | 
14 | CCCN(CCCc1ccc(O)cc1)Cc1cccc(OC)c1OCc1ccccc1 | 98 | 7.15 | < 5.00 | 31 | 16 | 44
15 | CCCN(CCCc1ccccc1F)Cc1cccc(OC)c1OCc1ccccc1 | 97 | 7.70 | < 5.00 | 33 | 85 | 49
16 | CCCN(CCc1ccccc1)Cc1cccc(OC)c1OCc1ccccc1 | 91 | 6.30 | < 5.00 |  |  | 
17 | C#CCN(CCc1ccc(OCC=C)cc1)Cc1cccc(OC)c1OCc1ccccc1 | 42 | < 5.00 | < 5.00 |  |  | 
18 | COc1cccc(CN(CCCc2ccccc2F)C2CCCC2)c1OCc1ccccc1 | 99 | 8.22 | < 5.00 | 28 | 61 | 55
19 | C#CCN(CCc1ccc(O)cc1)Cc1cccc(OC)c1OCc1ccccc1 | 78 | 5.72 | < 5.00 |  |  | 
20 | COc1ccc(CCNCc2cccc(OC)c2OCc2ccccc2)cc1 | 94 | 6.40 | < 5.00 |  |  | 
21 | COc1ccccc1CCNCc1cccc(OC)c1OCc1ccccc1 | 88 | 6.10 | < 5.00 |  |  | 
22 | COc1cccc(CCNCc2cccc(OC)c2OCc2ccccc2)c1 | 77 | 5.60 | < 5.00 |  |  | 
23 | COc1cccc(/C=N/CCc2ccc(O)cc2)c1OCc1ccccc1 | 48 | 5.10 | < 5.00 |  |  | 
24 | C#CCOc1ccc(CCN(CC#C)Cc2cccc(OC)c2OCc2ccccc2)cc1 | 72 | 6.70 | < 5.00 |  |  | 
25 | COc1cccc(CNC(C)CCc2ccccc2)c1OCc1ccccc1 (stereo not drawn) | 97 | 6.89 | < 5.00 |  |  | 

Row | SMILES | inhibition (Cholinesterase [1]) [%] | pIC50 (Cholinesterase [2]) | pIC50 (Acetylcholinesterase) | IC50 at 24 h [3] [µM] | Papp (in vitro) [×10⁻⁶ cm/s] | IC50 at 24 h [4] [µM]
26 | COc1cccc(CNCC(C)c2ccccc2)c1OCc1ccccc1 (stereo not drawn) | 96 | 6.80 | < 5.00 |  |  | 
27 | CCCN(CCc1ccccc1OC)Cc1cccc(OC)c1OCc1ccccc1 | 92 | 6.15 | < 5.00 |  |  | 
28 | CCCCCCCCCCCCCCN(CCCCc1ccccc1)Cc1cccc(OC)c1OCc1ccccc1 | 25 | < 5.00 | < 5.00 |  |  | 
29 | CO/N=C(\C(=O)N[C@@H]1C(=O)N2C(C(=O)O)=C(COC(N)=O)CS[C@H]12)c1ccco1 [CEFUROXIME] |  |  |  |  | 0.6 | 
30 | CCCCCCN(CCCCc1ccccc1)Cc1cccc(OC)c1OCc1ccccc1 | 78 | 6.15 | < 5.00 |  |  | 
31 | C#CCN(CCCc1ccccc1)Cc1cccc(OC)c1OCc1ccccc1 | 76 | 6.64 | < 5.00 |  |  | 
32 | C=CCOc1ccc(CCN(CC=C)Cc2cccc(OC)c2OCc2ccccc2)cc1 | 71 | 5.89 | < 5.00 |  |  | 
33 | C=CCN(CCc1ccc(OC)cc1)Cc1cccc(OC)c1OCc1ccccc1 | 72 | 5.70 | < 5.00 |  |  | 
34 | CCN(CCc1ccc(OC)cc1)Cc1cccc(OC)c1OCc1ccccc1 | 77 | 5.60 | < 5.00 |  |  | 
35 | C=CCN(CCc1cccc(OC)c1)Cc1cccc(OC)c1OCc1ccccc1 | 76 | 5.82 | < 5.00 |  |  | 
36 | COc1cccc(CN(C)CCCc2ccccc2)c1OCc1ccccc1 | 97 | 7.00 | < 5.00 |  |  | 
37 | C=CCN(CCc1ccccc1OC)Cc1cccc(OC)c1OCc1ccccc1 | 90 | 6.52 | < 5.00 |  |  | 
38 | C#CCOc1ccc(CCN(CC=C)Cc2cccc(OC)c2OCc2ccccc2)cc1 | 64 | 5.66 | < 5.00 |  |  | 
39 | C#CCN(CCc1ccc(OC)cc1)Cc1cccc(OC)c1OCc1ccccc1 | 66 | 5.89 | < 5.00 |  |  | 
40 | CCCN(CCc1cccc(OC)c1)Cc1cccc(OC)c1OCc1ccccc1 | 89 | 6.05 | < 5.00 |  |  | 
41 | CCN(CCc1ccccc1OC)Cc1cccc(OC)c1OCc1ccccc1 | 94 | 6.15 | < 5.00 |  |  | 
42 | COc1cccc(CNCCc2ccccc2)c1OCc1ccccc1 | 93 | 6.40 | < 5.00 |  |  | 
43 | CCCN(CCc1ccc(OC)cc1)Cc1cccc(OC)c1OCc1ccccc1 | 82 | 5.85 | < 5.00 |  |  | 
44 | COc1ccccc1CCN(C)Cc1cccc(OC)c1OCc1ccccc1 | 85 | 6.10 | < 5.00 |  |  | 
45 | CCN(CCc1ccccc1)Cc1cccc(OC)c1OCc1ccccc1 | 91 | 6.22 | < 5.00 |  |  | 
46 | CCN(CCc1cccc(OC)c1)Cc1cccc(OC)c1OCc1ccccc1 | 88 | 6.05 | < 5.00 |  |  | 
47 | C=CCN(CCc1ccccc1)Cc1cccc(OC)c1OCc1ccccc1 | 88 | 6.40 | < 5.00 |  |  | 
48 | CCN(CCCc1ccccc1)Cc1cccc(OC)c1OCc1ccccc1 | 98 | 7.22 | < 5.00 | 23 |  | 34
49 | CCCN(CCCc1ccccc1O)Cc1cccc(OC)c1OCc1ccccc1 | 95 | 6.66 | < 5.00 |  |  | 
50 | COc1cccc(CNCCCCc2ccccc2)c1OCc1ccccc1 | 94 | 6.70 | < 5.00 |  |  | 
